From US4816447A, “Anti-viral guanine compounds” (priority 1984, dated 1989)

Tests used:
[1] = tested on: Recombinant 6-19; assay: Drug sensitivity of HSV-1/HSV-2 intertypic Recombinant 6-19; conditions: Recombinant 6-19
[2] = tested on: HSV-1 PAA ®1; conditions: HSV-1 PAA R1
[3] = tested on: HSV-2 TS6
[4] = tested on: Recombinant 6-34; assay: Drug sensitivity of HSV-1/HSV-2 intertypic Recombinant 6-34; conditions: Recombinant 6-34
[5] = tested on: HSV-1 wild type Strain 17; assay: Drug sensitivity of HSV-1 wild type Strain 17; conditions: HSV-1 wild type Strain 17
[6] = tested on: Recombinant 6-30; assay: Drug sensitivity of HSV-1/HSV-2 intertypic Recombinant 6-30; conditions: Recombinant 6-30
[7] = tested on: Recombinant 6-26; assay: Drug sensitivity of HSV-1/HSV-2 intertypic Recombinant 6-26; conditions: Recombinant 6-26
[8] = target: T1, guanosine monophosphate kinase from hog brain (Sus scrofa, UniProt P31006); assay: Kinetic parameters with purified guanosine monophosphate kinase; assay type: biochemical; conditions: for Vmax: 25°, pH 7.6
T1 sequence (P31006 1-198): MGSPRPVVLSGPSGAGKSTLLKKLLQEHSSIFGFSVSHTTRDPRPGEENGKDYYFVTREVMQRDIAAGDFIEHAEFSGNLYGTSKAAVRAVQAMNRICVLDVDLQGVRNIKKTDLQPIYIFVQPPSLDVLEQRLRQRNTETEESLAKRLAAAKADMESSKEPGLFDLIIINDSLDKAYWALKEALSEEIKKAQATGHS

[9] = tested on: mycoplasmal growth; assay: Inhibition of mycoplasmal growth in chickens; assay type: in vivo; conditions: systemic, 875 μg/bird
[10] = Comparative solubilities in pH 7.2 buffer at 25°; assay type: physicochemical; conditions: aqueous buffer; pH 7.2 phosphate buffer, 25°
Procedure: Comparative Solubilities in pH 7.2 Buffer at 25°
Solubilities were determined by suspending an excess amount of the compound in approximately 0.15 molar phosphate buffer (pH 7.2) and shaking overnight in a water bath at 25° to give a saturated solution. The concentration of the compound in the filtered solution was calculated on the basis of spectrophotometric measurements, i.e. comparison of the ultraviolet absorbance at the λmax for the saturated solution with the absorbance value observed for a known concentration of the compound.

[11] = Genotoxicity; conditions: qualitative statement
[12] = tested on: Herpes simplex virus type I (HSV-1), strain Schooler; assay: Treatment of Herpes simplex virus infection in mice, repeat experiment (Table III); assay type: in vivo, HSV-1; ICR/Ha mice; conditions: for Percent Survival: at 15 days
Procedure: Twenty gram ICR/Ha mice were injected intraperitoneally (ip) with 0.5 ml of a 10^-5 dilution of a stock preparation of Herpes simplex virus type I (HSV-1), strain Schooler. This virus challenge infected each animal with approximately 100 LD50. […] The placebo group was composed of 45 animals. All compounds were solubilized in physiological saline, pH 11.5.

[13] = tested on: guanosine monophosphate kinase and extract of HSV1-infected HeLa cells; assay type: biochemical; conditions: gmp kinase, 4 h
Procedure: To the rest of the incubation mixtures were now added 0.04 units of guanosine monophosphate kinase and 20 μl of an extract of HSV1-infectedHeLa cells [The cells were infected with the virus at a multiplicity of 10 and harvested 8 hours later; they were suspended in a solution containing 0.35M KH2 PO4, pH 7.5, 0.5 mM dithiothreitol, 0.2% polyoxyethylene(9)octylphenol (Nonidet P-40), 14% glycerol at 50 mg/ml and after 30 minutes at 4° were centrifuged at […]; the supernatant liquid was the crude extract.] Incubation was continued at 30° for 4 more hours, after which samples were analyzed by HPLC and the amount of the triphosphate derivatives of each compound determined by integration of the area under the respective chromatographic peak.

[14] = tested on: Herpes simplex virus type 2; assay: Tube dilution assay, viral cytopathology of HSV-2 in rabbit kidney cell cultures; conditions: Human alphaherpesvirus 2, in Oryctolagus cuniculus, read-out: Minimum Effective Concentration
[15] = tested on: Herpes simplex virus type I (HSV-1), strain Schooler; assay: Treatment of Herpes simplex virus infection in mice, intraperitoneal HSV-1, subcutaneous treatment (Table II); assay type: in vivo, HSV-1; ICR/Ha mice; conditions: for Percent Survival: at 15 days
[16] = tested on: Herpes simplex virus type 1; assay: Tube dilution assay, viral cytopathology of HSV-1 in rabbit kidney cell cultures; conditions: Human alphaherpesvirus 1, in Oryctolagus cuniculus, read-out: Minimum Effective Concentration, Strain Schooler

## O=C(O)CP(=O)(O)O [PAA, phosphonoacetic acid, reference compound]
[1]
  Sensitivity (S) or Resistance (R): R
[2]
  Sensitivity (S) or Resistance (R): R
[3]; HSV-2 TS6
  Sensitivity (S) or Resistance (R): S
[3]; HSV-2 Ts6
  sensitivity of HSV-2 Ts6: sensitive
[4]
  Sensitivity (S) or Resistance (R): R
[5]
  Sensitivity (S) or Resistance (R): S
[6]
  Sensitivity (S) or Resistance (R): S
[7]
  Sensitivity (S) or Resistance (R): S

## Nc1nc2c(ncn2COC(CO)COP(=O)(O)O)c(=O)[nH]1 (stereo not drawn) [Compound of Formula II Monophosphate]
[8]
  relative efficiency as substrate (Vmax /Km) vs acycloguanosine monophosphate: 492 to 1
  Vmax: 7.1 µg/min/mg

## Nc1nc2c(ncn2[C@H]2C[C@H](O)[C@@H](COP(=O)(O)O)O2)c(=O)[nH]1 [Deoxyguanosine monophosphate, deoxyguanosine monophosphate, reference compound]
[8]
  Vmax: 17.2 µg/min/mg

## CCCCCCCC(=O)OCC(COC(=O)CCCCCCC)OCn1cnc2c(=O)[nH]c(N)nc21 [Example 11, 9-(1,3-Dioctanoyloxy-2-propoxymethyl)guanine]
[9]
  inhibition of mycoplasmal growth: 75%

## Nc1nc2c(ncn2COCC(O)CO)c(=O)[nH]1 (stereo not drawn) [Compound of Formula I, 9-(2,3-Dihydroxy-1-propoxymethyl)guanine]
[10]
  solubility: 3600 µg/mL
[11]
  genotoxicity: lack of genotoxicity
[12]; 3.1 mg/kg/day s.c.
  Avg. Survival Time: 7.2 days
  Percent Survival: 6%
[12]; 12.5 mg/kg/day s.c.
  Avg. Survival Time: 9.8 days
  Percent Survival: 33%
[12]; 50 mg/kg/day s.c.
  Avg. Survival Time: 10.5 days
  Percent Survival: 36%
[12]; combined results of both mouse experiments
  calculated average relative potency to acycloguanosine (95% CI): 9.2
[13]
  converted to the triphosphate: 55%
[14]
  minimal effective concentration: 3 to 6 µg/mL
[15]; 3.1 mg/kg/day s.c.
  Avg. Survival Time: 6.3 days
  Percent Survival: 0%
[15]; 12.5 mg/kg/day s.c.
  Avg. Survival Time: 9.0 days
  Percent Survival: 26%
[15]; 50 mg/kg/day s.c.
  Avg. Survival Time: 11.8 days
  Percent Survival: 60%
[16]
  minimal effective concentration: 1 to 3 µg/mL
